Measurements: US20080248511A1, “METHODS TO QUENCH LIGHT FROM OPTICAL REACTIONS” (priority 2007, published 2008)
Like-named read-outs stand apart in the source and are kept apart here.

Legend:
firefly luciferase [1] = target: T1, firefly luciferase (Photinus pyralis, UniProt P08659); assay: Detergent screen with Tergitol NP-9, firefly luciferase (Example 3); type: biochemical; conditions: 0.06% quencher in reagent solution; 0.5% Tergitol NP-9
Method: (§1) Unless otherwise specified, materials were obtained from Sigma-Aldrich.
(§2) The firefly luciferase and Renilla luciferase enzymes were diluted as follows. Firefly luciferase was diluted to 14 ng/ml in Delbecco's Minimal Essential (DMEM) medium (Gibco/Invitrogen) containing 0.1% Prionex®. Renilla luciferase was diluted to 10 ng/ml in DMEM medium containing 0.1% Prionex®.
(§3) The luciferase reactions were initiated by adding 50 μl of the firefly luciferase or Renilla luciferase enzyme solution to 50 μl of reagent solution. The reactions were performed as described above. The retained firefly luciferase and Renilla luciferase luminescence as well as the selectivity values for each quencher were calculated (Table 3). The values listed are based on 0.06% quencher in the reagent solution.

Renilla luciferase [2] = target: T2, Renilla luciferase (Renilla reniformis, UniProt P27652); assay: Detergent screen with Tergitol NP-9, Renilla luciferase (Example 3); type: biochemical; conditions: 0.5% Tergitol NP-9; for Retained Renilla Luminescence (%): 0.06% quencher in reagent solution; for Selectivity Value: retained firefly / retained Renilla, 0.06% quencher
T2 sequence (P27652 1-311): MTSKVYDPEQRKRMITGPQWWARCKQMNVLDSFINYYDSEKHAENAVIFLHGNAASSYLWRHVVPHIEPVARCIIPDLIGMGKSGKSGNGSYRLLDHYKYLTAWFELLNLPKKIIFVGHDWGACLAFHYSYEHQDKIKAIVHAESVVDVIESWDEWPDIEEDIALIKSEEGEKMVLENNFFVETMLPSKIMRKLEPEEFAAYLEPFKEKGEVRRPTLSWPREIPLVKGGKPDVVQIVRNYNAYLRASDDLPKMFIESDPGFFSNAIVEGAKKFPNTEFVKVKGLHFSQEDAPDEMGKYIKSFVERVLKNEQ
Method: as §1, §2, §3

firefly luciferase [3] = target: T1, firefly luciferase; assay: Detergent titration with Tergitol NP-9, digitonin or no lysing agent, firefly luciferase (Example 4); type: biochemical; conditions: read-out: Relative Firefly Luc Intensity; for remaining activity at 0.0005 %: 0.0005% detergent; for remaining activity at 0.005 %: 0.0050% detergent; for remaining activity at 0.05 %: 0.0500% detergent
Method: For measurement of firefly luciferase-mediated luminescence, a solution containing 110 mM HEPES pH 7.5, 8 mM MgSO4, 0.05% gelatin, 7.35 ng/ml firefly luciferase (QuantiLum® Luciferase; Promega) and the content of the Steady-Glo Luciferase Substrate (Promega) at the equivalent of 1×, As in the Renilla luciferase reactions, reactions contained either no lysing agent, 0.5% Tergitol NP-9 or 20 μg/ml digitonin. The same detergents were titrated as described above and firefly luciferase-mediated luminescence was measured.

Renilla luciferase [4] = target: T2, Renilla luciferase; assay: Detergent titration with Tergitol NP-9, digitonin or no lysing agent, Renilla luciferase (Example 4); type: biochemical; conditions: for remaining activity at 0.0005 % / remaining activity at 0.005 % / remaining activity at 0.05 %: read-out: Relative Renilla Luc Intensity
Method: Renilla luciferase-mediated luminescence was measured from samples containing 9.6 mM phosphate buffer pH 6.8, 2.7 mM KCl, 137 mM NaCl (in PBS), 0.1% gelatin, 75 nM coelentrazine (Promega) and 10.2 ng/ml Renilla luciferase. Reactions contained either no lysing agent, 0.5% Tergitol NP-9 or 20 μg/ml digitonin. The detergents to be tested were titrated to 0.05%, 0.005% or 0.0005% in the reactions prior to the addition of the Renilla luciferase. Renilla luciferase-mediated luminescence was measured as described herein.

firefly luciferase [5] = target: T1, firefly luciferase; assay: biochemical; conditions: 0.5% detergent in Luciferase Assay Reagent; read-out: Retained Firefly Luciferase Luminescence (%)
Method: (§4) The retained luminescence for each luciferase was calculated by dividing the luminescence in the presence of the detergent by the luminescence in the absence of the test detergent. The selectivity value for each of the test detergents was determined by dividing the retained firefly luciferase luminescence by the retained Renilla luciferase luminescence.
(§5) A set of detergents (Table 2; Sigma-Aldrich) was added at 0.5% (from a 5% or 10% stock solution) to either Luciferase Assay Reagent (Promega) or Renilla Luciferase Assay Reagent (Promega) and allowed to equilibrate at room temperature.
(§6) The firefly luciferase and Renilla luciferase enzymes were diluted as follows. Firefly luciferase was diluted to 14 ng/ml in Phosphate Buffered Saline (PBS) containing 0.1% of the protein carrier Prionex® (Pentapharm). Renilla luciferase was diluted to 10 ng/ml in 1× Renilla Luciferase Lysis Buffer (Promega) containing 0.1% Prionex®. The Renilla Luciferase Lysis Buffer […] detergent micelles when using the Renilla Luciferase Assay Reagent. In the absence of other detergents, this prevents sequestering of coelenterazine which inhibits Renilla luciferase-mediated luminescence.
(§7) The luciferase reactions were initiated by adding 40 μl of either the firefly or Renilla luciferase enzyme solution to 200 μl of the appropriate reagent solution (firefly luciferase enzyme solution+firefly luciferase reagent solution or Renilla luciferase enzyme solution+Renilla luciferase reagent solution, respectively). The reactions were performed in an opaque white, 96-well plate and luminescence was measured for 0.5 seconds per well using a Turner BioSystems Veritas™ Microplate luminometer. The retained firefly luciferase and Renilla luciferase luminescence, as well as the selectivity values for each detergent, were calculated (Table 2).

Renilla luciferase [6] = target: T2, Renilla luciferase; assay: biochemical; type: biochemical; conditions: for remaining activity at 0.5 %: 0.5% detergent in Renilla Luciferase Assay Reagent, read-out: Retained Renilla Luciferase Luminescence (%); for Selectivity Value: retained firefly / retained Renilla, 0.5% detergent
Method: as §4, §5, §6, §7

[7] = 0.0500% (w:v) detergent, Terg (0.5% Tergitol NP-9)
[8] = 0.0500% detergent, Dig (20 μg/ml digitonin)
[9] = 0.0500% detergent, Water (no lysing agent)

T1 sequence (P08659 whole entry): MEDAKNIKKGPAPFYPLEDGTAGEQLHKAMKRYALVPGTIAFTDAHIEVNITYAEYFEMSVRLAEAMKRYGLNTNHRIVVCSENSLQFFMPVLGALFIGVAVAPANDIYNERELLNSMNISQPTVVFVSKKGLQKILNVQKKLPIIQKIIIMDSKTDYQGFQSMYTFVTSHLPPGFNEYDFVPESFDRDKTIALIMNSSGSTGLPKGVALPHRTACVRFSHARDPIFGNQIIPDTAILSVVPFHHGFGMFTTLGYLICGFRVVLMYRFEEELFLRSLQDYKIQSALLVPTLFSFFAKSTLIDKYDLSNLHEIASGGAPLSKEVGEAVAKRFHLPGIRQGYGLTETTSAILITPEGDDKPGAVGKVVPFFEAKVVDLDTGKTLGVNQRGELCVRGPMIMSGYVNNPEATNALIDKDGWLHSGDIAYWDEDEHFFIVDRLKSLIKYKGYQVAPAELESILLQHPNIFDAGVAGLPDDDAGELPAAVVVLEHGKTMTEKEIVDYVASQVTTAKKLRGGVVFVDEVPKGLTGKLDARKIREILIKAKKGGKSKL

SMILES | remaining activity at 0.0005 % (firefly luciferase [3]; Dig) [%] | remaining activity at 0.0005 % (firefly luciferase [3]; Terg) [%] | remaining activity at 0.0005 % (firefly luciferase [3]; Water) [%] | remaining activity at 0.005 % (firefly luciferase [3]; Dig) [%] | remaining activity at 0.005 % (firefly luciferase [3]; Terg) [%] | remaining activity at 0.005 % (firefly luciferase [3]; Water) [%] | remaining activity at 0.05 % (firefly luciferase [3]; Dig (20 μg/ml digitonin)) [%] | remaining activity at 0.05 % (firefly luciferase [3]; Terg (0.5% Tergitol NP-9)) [%] | remaining activity at 0.05 % (firefly luciferase [3]; Water (no lysing agent)) [%] | Selective Inhibition (Ff Luc Inh/Ren Luc Inh) (Renilla luciferase [4]; 0.0005% detergent, Dig) | remaining activity at 0.0005 % (Renilla luciferase [4]; 0.0005% detergent, Dig) [%] | Selective Inhibition (Ff Luc Inh/Ren Luc Inh) (Renilla luciferase [4]; 0.0005% detergent, Terg) | remaining activity at 0.0005 % (Renilla luciferase [4]; 0.0005% detergent, Terg) [%] | Selective Inhibition (Ff Luc Inh/Ren Luc Inh) (Renilla luciferase [4]; 0.0005% detergent, Water) | remaining activity at 0.0005 % (Renilla luciferase [4]; 0.0005% detergent, Water) [%] | Selective Inhibition (Ff Luc Inh/Ren Luc Inh) (Renilla luciferase [4]; 0.0050% detergent, Dig) | remaining activity at 0.005 % (Renilla luciferase [4]; 0.0050% detergent, Dig) [%] | Selective Inhibition (Ff Luc Inh/Ren Luc Inh) (Renilla luciferase [4]; 0.0050% detergent, Terg) | remaining activity at 0.005 % (Renilla luciferase [4]; 0.0050% detergent, Terg) [%] | Selective Inhibition (Ff Luc Inh/Ren Luc Inh) (Renilla luciferase [4]; 0.0050% detergent, Water) | also measured
CCCCCCCCCCCCOCC[N+](C)(C)Cc1ccccc1.[Cl-] [Benzyldimethyl(2-dodecyloxethyl)ammonium chloride] |  |  |  |  |  |  |  |  |  |  |  |  |  |  |  |  |  |  |  |  | Retained Firefly Luminescence (%) (firefly luciferase [1]): 174.0%; Retained Renilla Luminescence (%) (Renilla luciferase [2]): 20.5%; Selectivity Value (Renilla luciferase [2]): 8.5
CCCCCCCCCCCCCC[N+](C)(C)Cc1ccccc1.[Br-] [Benzyldimethyltetradecylammonium bromide] | 155 | 98 | 126 | 128 | 93 | 106 | 1.4 | 45 | 10 | 11.0 | 14 | 1.0 | 96 | 10.2 | 12 | 5067 | 0.03 | 1.3 | 70 | 7068 | remaining activity at 0.005 % (Renilla luciferase [4]; 0.0050% detergent, Water): 0.01%; remaining activity at 0.05 % (Renilla luciferase [4]; [7]): 5%; Selective Inhibition (Ff Luc Inh/Ren Luc Inh) (Renilla luciferase [4]; 0.0500% detergent, Dig): 60; remaining activity at 0.05 % (Renilla luciferase [4]; [8]): 0.02%; Selective Inhibition (Ff Luc Inh/Ren Luc Inh) (Renilla luciferase [4]; 0.0500% detergent, Terg): 10; Selective Inhibition (Ff Luc Inh/Ren Luc Inh) (Renilla luciferase [4]; 0.0500% detergent, Water): 451; remaining activity at 0.05 % (Renilla luciferase [4]; [9]): 0.02%; remaining activity at 0.5 % (firefly luciferase [5]): 0.21%; remaining activity at 0.5 % (Renilla luciferase [6]): 0.13%; Selectivity Value (Renilla luciferase [6]): 1.6
CCCCCCCCCCCC[N+](C)(C)Cc1ccc2c(c1)CCCC2.[Cl-] [Dimethyldodecyl(5,6,7,8-tetrahydro-2-naphthylmethyl)ammonium chloride] |  |  |  |  |  |  |  |  |  |  |  |  |  |  |  |  |  |  |  |  | Retained Firefly Luminescence (%) (firefly luciferase [1]): 112.0%; Retained Renilla Luminescence (%) (Renilla luciferase [2]): 118.0%; Selectivity Value (Renilla luciferase [2]): 0.9
CCCCCCCCCCCC[N+](C)(C)C.[Br-] [Dodecyltrimethylammonium bromide] | 103 | 96 | 107 | 128 | 93 | 128 | 184 | 71 | 197 | 1.1 | 96 | 1.0 | 98 | 1.1 | 95 | 2.3 | 55 | 1.2 | 76 | 2.5 | remaining activity at 0.005 % (Renilla luciferase [4]; 0.0050% detergent, Water): 51%; remaining activity at 0.05 % (Renilla luciferase [4]; [7]): 9%; Selective Inhibition (Ff Luc Inh/Ren Luc Inh) (Renilla luciferase [4]; 0.0500% detergent, Dig): 98; remaining activity at 0.05 % (Renilla luciferase [4]; [8]): 2%; Selective Inhibition (Ff Luc Inh/Ren Luc Inh) (Renilla luciferase [4]; 0.0500% detergent, Terg): 8; Selective Inhibition (Ff Luc Inh/Ren Luc Inh) (Renilla luciferase [4]; 0.0500% detergent, Water): 110; remaining activity at 0.05 % (Renilla luciferase [4]; [9]): 2%; remaining activity at 0.5 % (firefly luciferase [5]): 42.1%; remaining activity at 0.5 % (Renilla luciferase [6]): 1.74%; Selectivity Value (Renilla luciferase [6]): 24.2
CCCCC[N+](CCCCC)(CCCCC)CCCCC.[Br-] [Tetrapentylammonium bromide] | 100 | 97 | 98 | 104 | 96 | 101 | 117 | 95 | 110 | 1.0 | 99 | 1.0 | 96 | 1.0 | 98 | 1.2 | 87 | 1.2 | 81 | 1.2 | remaining activity at 0.005 % (Renilla luciferase [4]; 0.0050% detergent, Water): 83%; remaining activity at 0.05 % (Renilla luciferase [4]; [7]): 38%; Selective Inhibition (Ff Luc Inh/Ren Luc Inh) (Renilla luciferase [4]; 0.0500% detergent, Dig): 2.9; remaining activity at 0.05 % (Renilla luciferase [4]; [8]): 40%; Selective Inhibition (Ff Luc Inh/Ren Luc Inh) (Renilla luciferase [4]; 0.0500% detergent, Terg): 2.5; Selective Inhibition (Ff Luc Inh/Ren Luc Inh) (Renilla luciferase [4]; 0.0500% detergent, Water): 3.0; remaining activity at 0.05 % (Renilla luciferase [4]; [9]): 37%; remaining activity at 0.5 % (firefly luciferase [5]): 80.9%; remaining activity at 0.5 % (Renilla luciferase [6]): 37%; Selectivity Value (Renilla luciferase [6]): 2.2
Cc1cc(C)c(C[N+](C)(C)C)cc1C.[Br-] [Trimethyl(2,4,5-Trimethylbenzyl)ammonium bromide] | 116 | 95 | 116 | 52 | 83 | 54 | 1 | 12 | 1 | 1.8 | 63 | 1.0 | 92 | 1.9 | 62 | 18 | 3 | 1.2 | 67 | 17 | remaining activity at 0.005 % (Renilla luciferase [4]; 0.0050% detergent, Water): 3%; remaining activity at 0.05 % (Renilla luciferase [4]; [7]): 4%; Selective Inhibition (Ff Luc Inh/Ren Luc Inh) (Renilla luciferase [4]; 0.0500% detergent, Dig): 47; remaining activity at 0.05 % (Renilla luciferase [4]; [8]): 0.03%; Selective Inhibition (Ff Luc Inh/Ren Luc Inh) (Renilla luciferase [4]; 0.0500% detergent, Terg): 2.9; Selective Inhibition (Ff Luc Inh/Ren Luc Inh) (Renilla luciferase [4]; 0.0500% detergent, Water): 50; remaining activity at 0.05 % (Renilla luciferase [4]; [9]): 0.03%; remaining activity at 0.5 % (firefly luciferase [5]): 0.06%; remaining activity at 0.5 % (Renilla luciferase [6]): 1.87%
